The source of these data is PubChem BioAssay AID330 (DTP/NCI, 2004).

This test concerns P388 leukemia ip, CD2F1 mice, survival T/C. Briefly: NCI In Vivo Anticancer Drug Screen. Data for tumor model P388 Leukemia (intraperitoneal) in CD2F1 (CDF1) mice. Particulars: endpoint: median survival time, higher = longer survival. In short, it runs like this: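 Mice carrying the transplanted tumor received test compound or vehicle. Survival was recorded in each group, and the value is the treated-group measurement divided by that of the vehicle-treated control group.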

[1] abbreviates: dose: 30.0 mg/kg/injection, schedule: Q01DX005 (ip), vehicle: Klucel (hydroxypropylcellulose) (HPC).
[2] abbreviates: dose: 60.0 mg/kg/injection, schedule: Q01DX005 (ip), vehicle: Klucel (hydroxypropylcellulose) (HPC).
[3] abbreviates: dose: 120.0 mg/kg/injection, schedule: Q01DX005 (ip), vehicle: Klucel (hydroxypropylcellulose) (HPC).
Where [4] appears, read: dose: 50.0 mg/kg/injection, schedule: Q01DX009 (ip), vehicle: Klucel (hydroxypropylcellulose) (HPC).
[5] abbreviates: dose: 100.0 mg/kg/injection, schedule: Q01DX009 (ip), vehicle: Klucel (hydroxypropylcellulose) (HPC).
Where [6] appears, read: dose: 200.0 mg/kg/injection, schedule: Q01DX009 (ip), vehicle: Klucel (hydroxypropylcellulose) (HPC).
Setting [7] is: dose: 50.0 mg/kg/injection, schedule: Q01DX009 (ip), vehicle: saline.
Setting [8] is: dose: 100.0 mg/kg/injection, schedule: Q01DX009 (ip), vehicle: saline.
The mark [9] stands for this setting: dose: 240.0 mg/kg/injection, schedule: Q01DX005 (ip), vehicle: Klucel (hydroxypropylcellulose) (HPC).
Where [10] appears, read: dose: 60.0 mg/kg/injection, schedule: Q01DX005 (ip), vehicle: saline with Tween-80.
[11] abbreviates: dose: 120.0 mg/kg/injection, schedule: Q01DX005 (ip), vehicle: saline with Tween-80.
[12] abbreviates: dose: 240.0 mg/kg/injection, schedule: Q01DX005 (ip), vehicle: saline with Tween-80.
[13] abbreviates: dose: 60.0 mg/kg/injection, schedule: Q01DX005 (ip), vehicle: saline.
[14] abbreviates: dose: 120.0 mg/kg/injection, schedule: Q01DX005 (ip), vehicle: saline.
Setting [15] is: dose: 240.0 mg/kg/injection, schedule: Q01DX005 (ip), vehicle: saline.

Where “and” joins values, the source holds several entries; their conditions need not be identical. Identical values can stand only once. Inconclusive results and toxic doses are left out.

On to `Cc1c([N+](=O)[O-])oc2c1C(=O)c1ccccc1C2=O`, for which the T/C (dose: 15.0 mg/kg/injection, schedule: Q01DX005 (ip), vehicle: Klucel (hydroxypropylcellulose) (HPC)) is 95 % of control; the T/C under setting [1] was 95 % of control; the T/C under setting [2] is 95 % of control and 96 % of control; the T/C under setting [3] was 102 % of control.

In the case of `Cc1ncc([N+](=O)[O-])n1Cc1nnc(N)s1`, the T/C reads like this: under setting [4], 107 % of control; under setting [5], 107 % of control; under setting [6], 108 % of control.

For `CCCCCCCCCCCCCCN1CCSCC1`, the T/C under setting [7] is 101 % of control and the T/C under setting [8] was 99 % of control.

With `Nc1nnc(Cc2ccccc2[N+](=O)[O-])c(=O)[nH]1`, the T/C was 113 % of control under setting [4], 115 % of control under setting [5] and 105 % of control under setting [6].

As for `CCc1ccc(NCc2ccc(CNc3ccc(CC)cc3)cc2)cc1`, the T/C (dose: 50.0 mg/kg/injection, schedule: Q01DX009 (ip), vehicle: saline with Tween-80) was 86 % of control; the T/C (dose: 100.0 mg/kg/injection, schedule: Q01DX009 (ip), vehicle: saline with Tween-80) was 96 % of control; the T/C (dose: 200.0 mg/kg/injection, schedule: Q01DX009 (ip), vehicle: saline with Tween-80) is 94 % of control.

Regarding `CCOC(=O)c1[nH]c(=O)c2cccnc2c1O`, the T/C by setting is: under setting [1], 97 % of control; under setting [2], 94 % of control and 98 % of control; under setting [3], 106 % of control and 96 % of control; under setting [9], 113 % of control.

Turning to `COc1ccccc1C(Nc1nncs1)Nc1nncs1`, the T/C under setting [10] was 106 % of control and the T/C under setting [11] was 97 % of control.

Regarding `O=C1CSC(c2ccc(O)cc2)N1c1nncs1` (centres undefined), the T/C reads like this: under setting [10], 107 % of control; under setting [11], 104 % of control; under setting [12], 98 % of control.

Turning to `CN(C)CCNC(c1ccccc1)C(O)c1ccccc1` (centres undefined), the T/C is, setting by setting: under setting [4], 100 % of control; under setting [5], 101 % of control.

For `C[C](C)(C)[Sn](=[O])[C](C)(C)C`, the T/C (dose: 6.25 mg/kg/injection, schedule: Q01DX009 (ip), vehicle: saline) is 95 % of control; the T/C (dose: 12.5 mg/kg/injection, schedule: Q01DX009 (ip), vehicle: saline) is 97 % of control; the T/C (dose: 25.0 mg/kg/injection, schedule: Q01DX009 (ip), vehicle: saline) is 99 % of control.

Take `COc1cc(C=Nc2cc(Cl)c(O)c(Cl)c2)ccc1N(CCCl)CCCl`: the T/C by setting is: (dose: 12.0 mg/kg/injection, schedule: Q04DX003 (ip), vehicle: saline) 204 % of control; (dose: 17.0 mg/kg/injection, schedule: Q04DX003 (ip), vehicle: saline) 263 % of control; (dose: 25.0 mg/kg/injection, schedule: Q04DX003 (ip), vehicle: saline) 100 % of control.

Take `C/C=C/C[P+](Cc1ccccc1)(c1ccccc1)c1ccccc1`: the T/C runs as follows: (dose: 0.78 mg/kg/injection, schedule: Q01DX009 (ip), vehicle: saline) 105 % of control; (dose: 1.56 mg/kg/injection, schedule: Q01DX009 (ip), vehicle: saline) 113 % of control; (dose: 3.13 mg/kg/injection, schedule: Q01DX009 (ip), vehicle: saline) 107 % of control.

As to `O=C1CN=CN1`, the T/C under setting [13] was 96 % of control, the T/C under setting [14] was 96 % of control and the T/C under setting [15] was 102 % of control.

Turning to `[C-]#[N+]C1CCCCC1.[C-]#[N+]C1CCCCC1.[C-]#[N+]C1CCCCC1.[C-]#[N+]C1CCCCC1.[C-]#[N+]C1CCCCC1.[C-]#[N+]C1CCCCC1.[Mn]`, where the note is “dose: 0.75 mg/kg/injection, schedule: Q01DX009 (ip), vehicle: saline with Tween-80”, the T/C is 155 % of control and 159 % of control.

As to `CCN(CC)C1C2=C(CCCC2)OS(=O)(=O)C1c1ccccc1` (centres undefined), the T/C is, setting by setting: under setting [2], 103 % of control; under setting [3], 97 % of control; under setting [9], 95 % of control.

For `CC(/C=C/C1OC(=O)C=CC1C)=C\C(C)C/C=C/C(C)=C/C(C)C(=O)C(C)C(O)C(C)C/C(C)=C/C(=O)O` (centres undefined), the T/C by setting is: (dose: 2.5 micrograms/kg/injection, schedule: Q01DX005 (ip), vehicle: saline + alcohol) 101 % of control; (dose: 5.0 micrograms/kg/injection, schedule: Q01DX005 (ip), vehicle: saline + alcohol) 99 % of control; (dose: 10.0 micrograms/kg/injection, schedule: Q01DX005 (ip), vehicle: saline + alcohol) 106 % of control; (dose: 20.0 micrograms/kg/injection, schedule: Q01DX005 (ip), vehicle: saline + alcohol) 100 % of control; (dose: 100.0 micrograms/kg/injection, schedule: Q01DX005 (ip), vehicle: alcohol) 150 % of control; (dose: 200.0 micrograms/kg/injection, schedule: Q01DX005 (ip), vehicle: alcohol) 159 % of control.

Regarding `CCOC(=O)NC(=S)Nc1nonc1-c1ccccc1`, the T/C is, setting by setting: under setting [10], 96 % of control; under setting [11], 100 % of control; under setting [12], 97 % of control.

Take `Cc1c(N(C)c2ccccc2)c(=S)n(C)c(=S)n1C`: the T/C is 89 % of control (dose: 50.0 mg/kg/injection, schedule: Q01DX005 (ip), vehicle: Klucel (hydroxypropylcellulose) (HPC)); 100 % of control (dose: 100.0 mg/kg/injection, schedule: Q01DX005 (ip), vehicle: Klucel (hydroxypropylcellulose) (HPC)); 90 % of control (dose: 200.0 mg/kg/injection, schedule: Q01DX005 (ip), vehicle: Klucel (hydroxypropylcellulose) (HPC)).

On to `CCOCC(=O)O`, for which the T/C by setting is: under setting [7], 95 % of control; under setting [8], 92 % of control; (dose: 200.0 mg/kg/injection, schedule: Q01DX009 (ip), vehicle: saline) 91 % of control.

As to `Clc1ccc(N=NN2CCOC2)cc1`, the T/C is 115 % of control under setting [10] and 109 % of control under setting [11].

With `Nc1ccn(C2OC(CO)C3OP(=O)(O)OC32)c(=O)n1` (centres undefined), the T/C by setting is: (dose: 25.0 mg/kg/injection, schedule: Q01DX005 (ip), vehicle: water) 101 % of control; (dose: 50.0 mg/kg/injection, schedule: Q01DX005 (ip), vehicle: water) 100 % of control; (dose: 100.0 mg/kg/injection, schedule: Q01DX005 (ip), vehicle: water) 101 % of control; (dose: 200.0 mg/kg/injection, schedule: Q01DX005 (ip), vehicle: water) 101 % of control; (dose: 400.0 mg/kg/injection, schedule: Q01DX005 (ip), vehicle: water) 100 % of control.

As for `Cc1cccc(N(CCO)CCC#N)c1`, the T/C (dose: 50.0 mg/kg/injection, schedule: Q01DX005 (ip), vehicle: distilled water + Tween-80 + alcohol) was 102 % of control; the T/C (dose: 100.0 mg/kg/injection, schedule: Q01DX005 (ip), vehicle: distilled water + Tween-80 + alcohol) is 101 % of control; the T/C (dose: 200.0 mg/kg/injection, schedule: Q01DX005 (ip), vehicle: distilled water + Tween-80 + alcohol) is 94 % of control.

As to `CC(=O)OC1COC(NC(=O)N(CCCl)N=O)C(OC(C)=O)C1OC(C)=O` (centres undefined), the T/C is 111 % of control (dose: 1.5 mg/kg/injection, schedule: Q01DX009 (ip), vehicle: saline with Tween-80); 121 % of control (dose: 3.0 mg/kg/injection, schedule: Q01DX009 (ip), vehicle: saline with Tween-80); 151 % of control (dose: 6.0 mg/kg/injection, schedule: Q01DX009 (ip), vehicle: saline with Tween-80); 161 % of control (dose: 12.0 mg/kg/injection, schedule: Q01DX009 (ip), vehicle: saline with Tween-80); 272 % of control (dose: 24.0 mg/kg/injection, schedule: Q01DX009 (ip), vehicle: saline with Tween-80); 114 % of control (dose: 48.0 mg/kg/injection, schedule: Q01DX009 (ip), vehicle: saline with Tween-80).

Consider `CC[n+]1c(/C=C/c2ccc(N(CCC(=O)O)CCC(=O)O)cc2)ccc2ccccc21`, for which the T/C is, setting by setting: (dose: 12.5 mg/kg/injection, schedule: Q04DX002 (ip), vehicle: saline with Tween-80) 100 % of control; (dose: 25.0 mg/kg/injection, schedule: Q04DX002 (ip), vehicle: saline with Tween-80) 106 % of control; (dose: 50.0 mg/kg/injection, schedule: Q04DX002 (ip), vehicle: saline with Tween-80) 106 % of control.

Take `COP(=O)(CC(=O)CCCCC1OCCO1)OC`: the T/C is 110 % of control under setting [13], 105 % of control under setting [14] and 100 % of control under setting [15].
